Test results: patent publication US20150018411A1, “COMPOUNDS AS PPAR BETA/DELTA INHIBITORS FOR TREATING PPAR BETA/DELTA-MEDIATED DISEASES” (PHILIPPS-UNIVERSITAT MARBURG, priority 2011, published 2015)
“Also recorded” adds a separate entry of the source.

Assays:
GST-PPAR beta/delta LBD [1] = target: T1, GST-PPAR beta/delta LBD (Homo sapiens, UniProt Q03181); assay: Competitive in vitro ligand binding, TR-FRET, displacement of Fluormone Pan-PPAR-Green; details: fluorescence ratio 520 nm/495 nm
T1 construct: GST-PPAR beta/delta LBD (GST=glutathione S-transferase); purchased Invitrogen, Darmstadt, Germany
T1 sequence (Q03181 211-439 limits assumed): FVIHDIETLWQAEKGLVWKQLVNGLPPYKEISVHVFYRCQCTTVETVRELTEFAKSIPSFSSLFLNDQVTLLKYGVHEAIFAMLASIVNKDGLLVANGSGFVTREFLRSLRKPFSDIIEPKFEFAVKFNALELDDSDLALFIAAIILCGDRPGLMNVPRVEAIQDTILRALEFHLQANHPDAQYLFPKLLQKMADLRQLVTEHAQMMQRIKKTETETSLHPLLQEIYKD
Description: FIG. 1: Competitive in vitro ligand binding to PPAR beta/delta. • The displacement of ligand Fluormone® Pan-PPAR Green from recombinant GST-PPAR beta/delta ligand binding domain (LBD) by the substances of the present invention comparative compound (CC) 2, compound 1 (A), compound 2 (B), and compound 3 (C), compound 4 (D), compound 5 (E) is determined by TR-FRET analysis. Shown is the ratio of fluorescence intensity at 520 nm (fluorescein emission, excited by terbium emission) and 495 nm (terbium emission). All data points represent average values of triplicates (+/−standard deviation).
A) Competitive ligand-binding of the substances of this invention was measured in vitro using time-resolved fluorescence resonance energy transfer (TR-FRET) by competition with the commercially available fluorescent Fluormone® Pan-PPAR-Green for binding to the fusion protein GST-PPAR beta/delta LBD (GST=glutathione S-transferase; LBD=ligand binding domain) (Invitrogen, Darmstadt, Germany) in a VICTOR3V Multilabel Counter (WALLAC 1420; PerkinElmer Life and Analytical Sciences, Rodgau, Germany). The measurement was performed in 100 mM KC, 20 mM Tris pH 7.9, 0.01% Triton X100 and 1 μg/μL bovine serum albumin. GST is known to the expert in the field as suitable fusion partner for proteins. For this purpose, the ratio of fluorescence intensities at 520 nm (fluorescein emission excited by terbium emission) and at 495 nm (terbium emission) is determined.

GST-PPAR beta/delta LBD [2] = target: T1, GST-PPAR beta/delta LBD; assay: Ligand-induced binding of corepressor peptide SMRT-ID2, TR-FRET; assay type: biochemical; details: concentration dependent
Description: FIG. 2: Induction of corepressor peptide binding to GST-PPAR beta/delta ligand binding domain (LBD) in vitro in dependency of the concentration of the substances of this invention comparative compound (CC) 2, compound 1 (A), compound 2 (B), compound 3 (C), compound 4 (D) and compound 5 (E). The interaction of fluorescein-labeled SMRT-ID2 peptide with recombinant GST-PPAR beta/delta LBD bound to a terbium-labeled anti-GST antibody is determined by TR-FRET analysis. Shown is the ratio of fluorescence intensity at 520 nm (fluorescein emission, excited by terbium emission) and 495 nm (terbium emission). All data points represent average values of triplicates (+/−standard deviation).
B) The ligand-induced binding of the commercially available fluorescein-labeled corepressor peptide SMRT-ID2 ([…]) (Invitrogen, Darmstadt, Germany) to GST-PPAR beta/delta is for example measured by TR-FRET analysis using a terbium-labeled anti-GST antibody in a VICTOR3V Multilabel Counter (WALLAC 1420; PerkinElmer Life and Analytical Sciences, Rodgau, Germany). The measurement is performed in a buffer composed of 100 mM KC, 20 mM Tris pH 7.9, 0.01% Triton X100 and 1 μg/μL bovine serum albumin.

PPAR beta/delta = target: T2, PPAR beta/delta (Homo sapiens, UniProt Q03181); assay: Agonist-induced transcriptional activity, luciferase reporter in WPMY-1 cells; assay type: cell-based; details: human WPMY-1 myofibroblasts, 500 nM substance, 500 nM agonist L165041
T2 construct: expressed in transfected cells; host or cells: WPMY-1 human myofibroblasts, transient transfection with PEI
T2 sequence (Q03181 1-441): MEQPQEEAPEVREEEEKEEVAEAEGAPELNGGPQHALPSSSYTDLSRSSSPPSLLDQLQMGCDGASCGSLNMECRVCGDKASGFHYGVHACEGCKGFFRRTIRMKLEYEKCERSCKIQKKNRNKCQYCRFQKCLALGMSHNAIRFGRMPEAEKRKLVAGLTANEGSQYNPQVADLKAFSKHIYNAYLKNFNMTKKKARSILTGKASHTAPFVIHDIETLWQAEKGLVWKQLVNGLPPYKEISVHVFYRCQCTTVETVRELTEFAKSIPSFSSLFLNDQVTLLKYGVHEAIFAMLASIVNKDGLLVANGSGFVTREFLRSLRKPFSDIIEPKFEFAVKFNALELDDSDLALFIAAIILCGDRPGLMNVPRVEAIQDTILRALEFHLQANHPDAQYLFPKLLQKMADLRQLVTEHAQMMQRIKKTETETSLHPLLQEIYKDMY
Description: FIG. 4: Effect of the substances of this invention comparative compound (CC) 2, compound 1, compound 5, compound 2 and compound 3 on the agonist-induced transcriptional activity of PPAR subtypes alpha (A), beta/delta (B) and gamma (C). • WPMY-1 cells are transiently transfected with a luciferase reporter plasmid. Four hours after transfection, cells are treated for 48 hours with the respective antagonist (500 nM), followed by a treatment with 300 nM of PPAR alpha agonist GW7647 (A), 500 nM of PPAR beta/delta agonist L165041 (B) or 300 nM of PPAR gamma agonist GW1929 (C). The relative induction is represented by the luciferase activity of the agonist-treated transfected cells in relation to solvent-treated transfected cells. Asterisks (**, *) indicate significant differences to untreated cells (after t-test; **: p<0.01; *: p<0.05). GW7647 is commercially available from Sigma-Aldrich (Steinheim, Germany). L165041 and GW1929 can be obtained from Biozol (Eching, Germany).
D) The influence of substances of this invention on the agonist-induced transcriptional activity of PPAR subtypes alpha, beta/delta or gamma is determined in WPMY-1 myofibroblasts transfected transiently with a luciferase reporter plasmid (LexA system) using polyethyleneimine (PEI) according to a method known to the expert. As agonists, substances GW7647 for PPAR alpha or L165041 for PPAR beta/delta or GW1929 for PPAR gamma known to the expert are used. WPMY-1 myofibroblast cells are initially cultured for example in a 12-well plate in DMEM medium (DMEM: Dulbecco's Modified Eagle Medium) according to a method known to the expert and to a confluence of 70% to 80%, and subsequently transfected with 2.5 μg of plasmid-DNA containing the luciferase reporter plasmid, expression plasmids for the respective PPAR subtypes and the Renilla-luciferase plasmid pRL-SV40 (Promega, Mannheim, Germany), and 2.5 μl PEI (1:1000 dilution, pH 7). Four hours after transfection, the cells are treated for 48 hours with 500 nM of the substances of this invention, and 24 later with 300 nM (GW7647 or GW1929, respectively) or 500 nM (L165041) of the respective agonist at 37° C. and 5% CO2 in an incubator. The luciferase assay is performed 48 hours after the first treatment according to the commercial method of the “dual-well-system” (pjk GmbH, Kleinblittersdorf, Germany), whereby for a normalization, not only the luciferase-, but also the Renilla activity is measured. Cells are initially lysed for this measurement, and 20 μl of the lysate is transferred into a white 96-well plate (Fisher Scientific, Hamburg, Germany). […] Mean values and standard deviation are calculated from values of three independent measurements.

ANGPTL4 gene expression = ANGPTL4 gene expression (qPCR) in WPMY-1 myofibroblasts; assay type: cell-based, human; details: WPMY-1, 1 μM, 24 hours, compared to DMSO-treated cells
Description: FIG. 5: Influence of the substances of this invention comparative compound (CC) 2, compound 1, compound 5, compound 2 and compound 3 on ANGPTL4 gene expression. • (A) Comparison of relative ANGPTL4 expression, (B) mean inhibitory concentration of substances of this invention. (A) Human myofibroblasts (WPMY-1) are treated for 24 hours with the substances of this invention (1 μM), then RNA is isolated, the cDNA synthesized and analyzed by qPCR, normalized to L27 gene expression. (B) Titration of the effect of substances of this invention on the endogenous ANGPTL4 expression in WPMY-1 cells (left) or peritoneal mouse macrophages (right) after cells have been treated for six hours with the substances of this invention compound 1 and compound 2, respectively; RNA isolation, cDNA synthesis and qPCR as described for (A). The relative expression is calculated in relation to DMSO-treated cells. All values are average values of triplicates (+1-standard deviation). Asterisks (***, **, *) indicate significant differences to DMSO-treated cells (***: p<0.001 after t-test; *: p <0.05).
The influence of substances of this invention on PPAR-beta/delta regulated genes like for example ANGPTL4 which codes for the angiopoietin-like protein ANGPTL4 is assessed in different cells with a confluence of 70% to 80% in a 6-well cell culture plate. For this purpose, cultivated human myofibroblasts (WPMY-1), peritoneal mouse macrophages or cells of the human breast cancer cell line MDA-MB-231 are treated for 24 hours with 1 μM of the substances of this invention. Cells of the breast cancer cell line are in addition stimulated for 6 hours with TGF-beta2 (2 ng/ml) which is commercially available. Subsequently, RNA is isolated from the cells by procedures known to the expert and analyzed by quantitative PCR (qPCR, real time qPCR, RT-qPCR) also known to those skilled in the art. […]

COC(=O)c1sccc1S(=O)(=O)Nc1ccc(NCc2ccccc2)cc1OC [compound 4, methyl 3-(N-(4-(benzylamino)-2-methoxyphenyl)sulfamoyl)thiophene-2-carboxylate]
competition with Fluormone Pan-PPAR-Green for binding to GST-PPAR beta/delta LBD (GST-PPAR beta/delta LBD [1]): significant competition efficacy; also recorded: significant competition efficiency | induction of interaction of PPAR beta/delta LBD with corepressor peptide SMRT-ID2 (GST-PPAR beta/delta LBD [2]): clearly demonstrate the interaction; also recorded: induce

COC(=O)c1sccc1S(=O)(=O)Nc1ccc(NCCC(C)C)cc1OC [compound 3, methyl 3-(N-(4-(isopentylamino)-2-methoxyphenyl)sulfamoyl)thiophene-2-carboxylate]
competition with Fluormone Pan-PPAR-Green for binding to GST-PPAR beta/delta LBD (GST-PPAR beta/delta LBD [1]): significant competition efficacy; also recorded: significant competition efficiency | induction of interaction of PPAR beta/delta LBD with corepressor peptide SMRT-ID2 (GST-PPAR beta/delta LBD [2]): clearly demonstrate the interaction; also recorded: induce | agonist-induced transcriptional activity of PPAR beta/delta (luciferase induction) (PPAR beta/delta): inhibited in a PPAR subtype-specific manner

COC(=O)c1sccc1S(=O)(=O)Nc1ccc(N2CCOCC2)cc1OC [comparison compound 2, methyl 3-(N-(2-methoxy-4-morpholinophenyl)sulfamoyl)thiophene-2-carboxylate, reference compound]
reduction of relative expression of the ANGPTL4 gene (ANGPTL4 gene expression): up to 10%
